From EPA's ToxValDB 9.5
Several values for one entry are separate records, joined by “and”; a condition that tells them apart may be missing. Identical values can stand only once.

Tests used:
Oryctolagus sp. = conditions: acute, dermal, New Zealand
Rattus norvegicus [1] = system: Rattus norvegicus
Mus musculus [2] = conditions: oral
Rattus norvegicus [3] = conditions: oral
Rattus norvegicus [4] = conditions: oral; remark: listed apart in the source
Mus musculus [5] = conditions: oral; for LD50: acute; for NOAEL / NOAEL (% diet): CD1
Rattus norvegicus [6] = conditions: subchronic, oral, gavage, Sprague-Dawley
[7] = reproduction developmental, drinking water, F, reproductive effects
[8] = reproduction developmental, duration: 90 days, oral, diet, F
[9] = reproduction developmental, duration: 90 days, oral, diet, F, Fischer 344
[10] = reproduction developmental, duration: 90 days, oral, diet, Fischer 344, generation: F1
[11] = reproduction developmental, duration: 90 days, oral, diet, generation: F1
[12] = chronic, duration: 2 years, diet, M/F, increased absolute and relative liver weight
[13] = subchronic, duration: 13 weeks, diet, M/F, neurological dysfunction
[14] = chronic, duration: 2 years, diet, M/F, reduced body weight

SMILES: CC(C)COP(=S)([S-])OCC(C)C.CC(C)COP(=S)([S-])OCC(C)C.[Zn+2]
- LD50 (Oryctolagus sp.): > 20000 mg/kg
- LD50 (Rattus norvegicus [1]; acute, oral, gavage, Wistar): 3600 mg/kg

SMILES: CCC(C)OP(=S)([S-])OC(C)CC(C)C.CCC(C)OP(=S)([S-])OC(C)CC(C)C.[Zn+2] (stereo not given)
- LD50 (Oryctolagus sp.): > 5000 mg/kg
- LD50 (Rattus norvegicus [1]; acute, oral, gavage, Sprague-Dawley): ≥ 2900 mg/kg and ≤ 3400 mg/kg

SMILES: Cc1ccc([N+](=O)[O-])cc1C [1,2-Dimethyl-4-nitrobenzene]
- LD50 (Oryctolagus sp.; occlusive): > 5700 mg/kg
- LD50 (Rattus norvegicus [1]; acute, oral, Wistar): 2640 mg/kg

SMILES: CNNC [1,2-Dimethylhydrazine]
- LOAEL (Mus musculus [2]; chronic, duration: 5 months, diet, M, hepatic): 0.75 mg/kg-day

SMILES: Oc1ccccc1Cl [2-Chlorophenol]
- LOAEL (Rattus norvegicus [3]; [7]): 50 mg/kg-day
- NOAEL (Rattus norvegicus [3]; [7]): 5 mg/kg-day
- NOAEL (Rattus norvegicus [4]; reproduction developmental, duration: 364 days, drinking water, M/F, Sprague-Dawley, reproductive): 7.6 mg/kg-day

SMILES: Nc1ccc(Oc2ccc(N)cc2)cc1 [4,4'-Oxydianiline]
- LD50 (Mus musculus [5]; gavage): ≥ 635 mg/kg and ≤ 735 mg/kg
- LD50 (Rattus norvegicus [1]; acute, oral, gavage): ≥ 675 mg/kg and ≤ 775 mg/kg
- NOAEL (Rattus norvegicus [1]; developmental, oral, gavage, Sprague-Dawley): 10 mg/kg-day
- LOAEL (Rattus norvegicus [1]; [8]): 400 ppm
- NOAEL (Rattus norvegicus [1]; [8]): 100 ppm
- LOAEL (Rattus norvegicus [1]; [9]): 400 ppm
- NOAEL (Rattus norvegicus [1]; [9]): 100 ppm
- LOAEL (Rattus norvegicus [1]; [10]): 400 ppm
- NOAEL (Rattus norvegicus [1]; [10]): 100 ppm
- LOAEL (Rattus norvegicus [1]; [11]): 400 ppm
- NOAEL (Rattus norvegicus [1]; [11]): 100 ppm
- NOAEL (Rattus norvegicus [1]; reproduction developmental, oral, gavage, F, Sprague-Dawley): 10 mg/kg-day
- NOEL (Rattus norvegicus [6]; M, Food Consumption: decrease + Hematology: RBC decrease, R Hgb decrease, R RET increase, R Hct decrease, MCHC decrease, R APTT decrease, WBC …): 3 mg/kg-day

SMILES: Cc1ccc2[nH]c3cc4c(=O)c5cc(C)ccc5[nH]c4cc3c(=O)c2c1 [C.I. Pigment Red 122]
- LD50 (Mus musculus [5]; gavage): ≥ 5000 mg/kg
- LD50 (Rattus norvegicus [1]; acute, oral, gavage): ≥ 5000 mg/kg
- NOEL (Rattus norvegicus [6]): 1000 mg/kg-day

SMILES: CCOP(=O)(OCC)OC(=CCl)c1ccc(Cl)cc1Cl [Chlorfenvinphos]
- LOAEL (Mus musculus [2]; subchronic, duration: 3 months, M/F, C57BL/6, immunological): 1.5 mg/kg-day
- LOAEL (Rattus norvegicus [4]; chronic, duration: 104 weeks, diet, M/F, Wistar, neurological): 0.7 mg/kg-day
- LOAEL (Rattus norvegicus [4]; short-term, duration: 10 days, diet, F, Wistar, neurological): 2.4 mg/kg-day

SMILES: CCCCCCCCOC(=O)c1ccccc1C(=O)OCCCCCCCC [Di-n-octyl phthalate]
- LD50 (Mus musculus [5]): 13000 mg/kg
- NOAEL (Mus musculus [5]; reproduction developmental, duration: 8 days, gavage, F): 9780 mg/kg-day
- NOAEL (% diet) (Mus musculus [5]; reproduction developmental, generation: F0): 5
- NOAEL (% diet) (Mus musculus [5]; reproduction developmental, generation: F1): 5
- NOAEL (% diet) (Mus musculus [5]; reproduction developmental, generation: F2): 5
- LD50 (Rattus norvegicus [1]; acute, oral): 53700 mg/kg
- NOAEL (Rattus norvegicus [1]; reproduction developmental, duration: 13 weeks, oral, diet, Sprague-Dawley): 38.8 mg/kg-day
- LOAEL (Rattus norvegicus [4]; short-term, duration: 14 days, gavage, M, Sprague-Dawley, hepatic): 1000 mg/kg-day
- NOAEL (Rattus norvegicus [4]; subchronic, duration: 13 weeks, diet, M/F, Sprague-Dawley, hepatic): 40.8 mg/kg-day

SMILES: COCCOCCOC [Diethylene glycol dimethyl ether]
- NOAEL (Mus musculus [5]; developmental, duration: 9 days, gavage): 62.8 mg/kg-day
- NOAEL (Mus musculus [5]; reproduction developmental, duration: 9 days, gavage, F): 500 mg/kg-day
- LC50 (Rattus norvegicus [1]; acute, inhalation, nose only, Wistar): > 11000 mg/m3
- NOAEC (Rattus norvegicus [1]; repeat dose other, inhalation, M): 165 mg/m3
- NOAEL (Rattus norvegicus [1]; short-term, duration: 2 weeks, inhalation, nose only, F): 2030 mg/m3
- LOAEL (Rattus norvegicus [1]; short-term, duration: 2 weeks, inhalation, nose only, M): 604 mg/m3
- NOEL (Rattus norvegicus [6]; M, Hematology: Hgb decrease, Hct decrease, MCV decrease + Necropsy: Spleen: Enlargement + Histopathology: Liver/Centrilobular- Hypertrophy of …): 2.5 mg/kg-day

SMILES: CC1=C(C)S(=O)(=O)CCS1(=O)=O [Dimethipin]
- LEL (Rattus norvegicus [3]; [12]): 10 mg/kg-day
- NOEL (Rattus norvegicus [3]; [12]): 2 mg/kg-day

SMILES: c1cc[n+]2c(c1)-c1cccc[n+]1CC2 [Diquat]
- LEL (Rattus norvegicus [3]; chronic, diet, F, lens opacity and cataracts): 0.72 mg/kg-day
- NOEL (Rattus norvegicus [3]; chronic, diet, M/F, lens opacity and cataracts): 0.22 mg/kg-day
- LEL (Rattus norvegicus [3]; chronic, diet, M, lens opacity and cataracts): 0.58 mg/kg-day

SMILES: CC(C)C(C(=O)OC(C#N)c1cccc(Oc2ccccc2)c1)c1ccc(Cl)cc1 (stereo not given) [Fenvalerate]
- LEL (Rattus norvegicus [3]; [13]): 7.5 mg/kg-day
- NOEL (Rattus norvegicus [3]; [13]): 2.5 mg/kg-day

SMILES: CN(C)C(=O)Nc1cccc(C(F)(F)F)c1 [Fluometuron]
- NOAEL (Rattus norvegicus [3]; chronic, duration: 103 weeks, diet, M/F, no effects): 12.5 mg/kg-day

SMILES: CN(C)c1nc(=O)n(C2CCCCC2)c(=O)n1C [Hexazinone]
- LEL (Rattus norvegicus [3]; [14]): 50 mg/kg-day
- NOEL (Rattus norvegicus [3]; [14]): 10 mg/kg-day
